Data reported in patent US10894054B2, “FXR agonist compositions for combination therapy” (Intercept Pharmaceuticals, Inc., priority 2015, dated 2021).

What was measured:
DIO-NASH mice = test: Oral glucose tolerance test (OGTT); format: in vivo, male C57BL/6 mice; conditions: alone or combined, PO QD, DIO-NASH vehicle 1762 ± 45
Experimental: Blood samples were collected into 10 μL heparinized glass capillary tubes. The sample was immediately suspended in buffer (0.5 ml of glucose/lactate system solution (EKF-diagnostics, Germany) and analyzed for glucose on the test day using a BIOSEN c-Line glucose meter (EKF-diagnostics, Germany). For triglyceride and cholesterol content, 100 μl blood was collected into Lithium-Heparin tubes. Plasma was separated and samples were stored at 4° C. for one day prior to analysis.
In week 4 (LIRA and MET combinations) or week 6 (SIT combination) of treatment, an OGTT was performed in conscious free-moving animals. […] Animals were fasted for 4 h prior to test start (food removal from 6 AM to 10 AM). At t=0, mice received an oral bolus of glucose (2 g/kg) (200 mg/ml; Fresenius Kabi, Sweden) by oral gavage (10 ml/kg). Blood samples were collected from the tail vein (by snipping) and blood glucose was measured at time point 0, 15, 30, 60 and 120 minutes after the oral glucose administration. Mice were re-fed after the blood sampling and drug dosed as per usual.

[1] = tested on: HFD-induced rabbit model of MetS; conditions: cited from earlier work
[2] = high dose: OCA 30 mg/kg, MET 150 mg/kg
[3] = low dose: OCA 10 mg/kg, MET 50 mg/kg
[4] = HFD rabbits, in vivo OCA dosing

Structure (SMILES) | OGTT Blood Glucose AUC, Week 4 (DIO-NASH mice; [2]) | OGTT Blood Glucose AUC, Week 4 (DIO-NASH mice; [3]) | adipocyte size, hypoxia, and expression of perilipin and GLUT4 (SLC2A4) in VAT ([1]; HFD rabbits vs rabbits on a control diet, immunohistochemistry, Western blot, RT-PCR) | amount of visceral AT (VAT) [1, 4] | expression of steatosis and inflammation markers [1, 4] | insulin resistance and metabolic profile [1, 4]
CN(C)C(=N)N=C(N)N [MET, metformin, reference compound] | 1480 ± 53 mmol·min/L | 1698 ± 31 mmol·min/L |  |  |  | 
CC[C@H]1[C@@H](O)[C@@H]2[C@H](CC[C@]3(C)[C@@H]([C@H](C)CCC(=O)O)CC[C@@H]23)[C@@]2(C)CC[C@@H](O)C[C@@H]12 [OCA, 3α,7α-dihydroxy-6α-ethyl-5β-cholan-24-oic acid] | 1778 ± 88 mmol·min/L | 1680 ± 71 mmol·min/L | normalizes | marked reduction | normalizes | ameliorates insulin resistance and the metabolic profile
